Data taken from US20230393140A1, “BINDING ASSAYS INVOLVING A PLURALITY OF SYNTHETIC COMPOUNDS, TARGETS, AND COUNTER TARGETS” (SRI International, priority 2020, published 2023).
Like-named read-outs stand apart in the source and are kept apart here. Marks after values point to notes of the source that are not given here. Numbered stars: 1 amine (or outer) side, 2 acyl side, 3 side chain; on linkers, the order of the positions; unused ones are H or OH. Square brackets hold non-standard residues; d marks the D form. Peptide text beside a SMILES is read from it. * marks the point of attachment. 5FAM = O=C1OC2(c3ccc(O)cc3Oc3cc(O)ccc32)c2ccc(C(=O)*)cc21; NHCH2C6H4(4-CH2CONH2) = NC(=O)Cc1ccc(CN*)cc1; X1 = O=C(Cc1ccc(CN[*:1])cc1)[*:2]

Columns and labels:
[1] = target: T1, K-Ras (Homo sapiens, UniProt P01116, G12V); assay: MST binding affinity of resynthesized NNP hits to K-Ras
T1 construct: purchased Cytoskeleton Inc. CS-RS04
Method: Loading was performed according to the following protocol: The 200 μM stock solution of the target protein was diluted to 10 μM in 20 mM HEPES pH 8.0, 150 mM NaCl, 10 mM MgCl2, 1 mM TCEP, 0.05% Tween-20 (total volume 110 μL). 10 μL were set aside for later labeling quality control. EDTA pH 8.0 (stock concentration 10 mM) was added to the protein solution to a final concentration of 80 μM. GTP (stock concentration 50 mM) was added to the protein solution to a final concentration of 750 μM. The solution was incubated at 30° C. for 2 hours (PCR tube) and then placed on ice for 2 minutes. MgCl2 was added to the protein solution to a final concentration of 100 mM. The resulting protein solution was buffer exchanged into the buffer required in the labeling kit for labeling. […] All the other target molecules (TNFα, IL-6, IL-6R and ASGPR) were used as received without any additional treatment.
Hit binding affinity to various targets were determined using Microscale Thermophoresis (MST). MST experiments were performed on a Monolith NT.115pico (NanoTemper Technologies GmbH, Munich, Germany). Measurements were performed at room temperature, in triplicate with incubation periods of 15, 30 and 45 minutes. […] Targets were labeled using Nanotemper Monolith 2nd Generation Protein Labeling Kits. RED-MALEIMIDE (Maleimide-647-dye) labeling kit was used for K-Ras and RED-NHS (NHS-647-dye) labeling kit was used for IL-6, IL-6R, TNFα and ASGPR. The buffer for the ASGPR contained 20 mM HEPES pH 7.4, 150 mM NaCl, 10 mM MgCl2, 2 mM CaCl2, 0.05% Pluronic F-127, and 1 mM DTT; for IL-6 contained 20 mM HEPES pH 7.4, 150 mM KCl, 10 mM MgCl2, and 0.1% Pluronic F-127; for the soluble IL-6 receptor 20 mM HEPES pH 7.4, 150 mM NaCl, 10 mM MgCl2, and 0.05% Tween-20; for K-Ras 20 mM HEPES pH 7.4, 150 mM NaCl, 10 mM MgCl2, 0.05% Tween-20 and 1 mM DTT; for TNFα 10 mM HEPES pH 7.4, 150 mM NaCl, 10 mM MgCl2, 0.05% Polysorbate-20. Triplicate data was analyzed using MO.AffinityAnalysis software (NanoTemper Technologies GmbH).

[2] = target: T2, cRaf/K-Ras (G12V) PPI (Homo sapiens, UniProt P01116, G12V); assay: K-Ras-cRaf HTRF-based PPI profiling; assay type: biochemical; conditions: for HillSlope: curve fit of % binding, K-Ras G12V 30 nM, GST-cRaf 10 nM; for blank corrected HTRF: raw data, compounds without fluorescein;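 as to blank corrected HTRF: background is the signal of wells with all components except cRaf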
T2 construct: b-Kras G12V (GppNHp) (aa 2-169); biotin (b-
Method: In some experimental embodiments, a buffer was added to the assay wells which included […] HEPES pH 7.4, 150 mM NaCl, 5 mM MgCl2, 1 mM DTT, 0.005% NP40, and 1% DMSO. 5 uL of 3×K-Ras protein was then added to the assay wells, followed by the synthetic compounds which were added using acoustic technology (ECHO, Labcyte) followed by thirty minutes incubation at room temperature. Afterwards, 5 uL of 3×cRaf protein was added to the assay wells and 5 uL of detection mix was then added to the assay wells after 30 minutes. The detection mix included Mab anti-GST-Tb cryptate (Cisbio 61GSTTLB) and streptavidin-XL665 (Ex/Em=(337/665; 620) in PHERAstar (BMG Labtech)). HTRF signal was measured […] later.
The data includes raw data (signal-background without cRaf protein but with all other component), % binding (relative to DMSO controls), and curve fits. Curve fits were performed when the activities at the highest concentration of the synthetic compounds were less than 65%. Tables 18A-18B below includes the raw data (e.g., blank corrected HTRF) and Tables 19A-19B includes the % binding.

[3] = tested on: biotinylated GST; assay: Interference check with biotinylated GST and detection mix
Description: Table 20 below provides an interference check on the synthetic compounds using biotinylated GST, which was used with the detection mix to check for compound effect on fluorescence.

[4] = K-Ras, compound with fluorescein on N-term, read-out: KD[nM] in MST (with fluorescein on N-term)
[5] = read-out: KD (nM) [95% conf. int], MST, NNP1 library hit, target K-Ras, one-site binding model

| SMILES | Kd [1, 4] [nM] | Kd [1, 5] [nM] | HillSlope [2] | blank corrected HTRF ([2]; conc. 1.00E−05) | blank corrected HTRF ([2]; conc. 1.11E−06) | blank corrected HTRF ([2]; conc. 1.23E−07) | blank corrected HTRF ([2]; conc. 3.33E−06) | blank corrected HTRF ([2]; conc. 3.70E−07) | blank corrected HTRF ([2]; conc. 4.12E−08) | also measured |
| --- | --- | --- | --- | --- | --- | --- | --- | --- | --- | --- |
| CC(C)[C@H](NC(=O)[C@@H](Cc1ccc(O)cc1)NC(=O)[C@@H](Cc1c[nH]cn1)NC(=O)[C@H]1CCCN1C(=O)[C@@H](Cc1c[nH]c2ccccc12)NC(=O)c1ccc2c(c1)C(=O)OC21c2ccc(O)cc2Oc2cc(O)ccc21)C(=O)NCc1ccc(CC(=O)NCC(=O)N[C@@H](C(=O)N2CCC[C@@H]2C(=O)N[C@H](CCCNC(=N)N)C(=O)N[C@@H](C)C(=O)NCc2ccc(CC(=O)N3CCC[C@@H]3C(=O)N[C@H](CO)C(=O)N[C@H](CCC(=O)O)C(=O)N[C@H](CCCNC(=N)N)C(=O)NCC(=O)NCc3ccc(CC(=O)N4CCC[C@@H]4C(=O)N[C@H](CCCCN)C(=O)N[C@H](Cc4ccc(O)cc4)C(=O)N[C@H](CCCNC(=N)N)C(=O)N[C@@H](Cc4ccccc4)C(=O)NCc4ccc(CC(=O)N[C@H](CO)C(=O)N[C@H](CO)C(=O)NCC(=O)N[C@H](CC(N)=O)C(=O)N[C@@H](Cc5ccccc5)C(=O)NCc5ccc(CC(=O)NCC(=O)N[C@H](Cc6c[nH]c7ccccc67)C(=O)N[C@H](Cc6c[nH]cn6)C(=O)N[C@H](CCCNC(=N)N)C(=O)N[C@@H](C)C(=O)NCc6ccc(CC(N)=O)cc6)cc5)cc4)cc3)cc2)C(C)C)cc1 [KRAS-1-1] (5FAM-[dW][dP][dH][dY]V[X1]G[dV][dP][dR]A[X1][dP][dS][dE][dR]G[X1][dP][dK][dY][dR]F[X1][dS][dS]G[dN]F[X1]G[dW][dH][dR]A-{NHCH2C6H4(4-CH2CONH2)}) | 24 | 24 | −0.7155 | 4849 | 6589 | 12756 | 5282 | 11981 | 14675 | blank corrected HTRF ([2]; conc. 1.37E−08): 14500; blank corrected HTRF ([2]; conc. 5.08E−10): 13672 |
| CC(C)C[C@H](NC(=O)[C@@H](CCC(=O)O)NC(=O)[C@@H](CCCNC(=N)N)NC(=O)[C@@H](CO)NC(=O)[C@H](NC(=O)Cc1ccc(CNC(=O)[C@H](C)NC(=O)[C@@H](CO)NC(=O)CNC(=O)[C@@H](CO)NC(=O)[C@H]2CCCN2C(=O)Cc2ccc(CNC(=O)[C@H](Cc3ccccc3)NC(=O)[C@@H](CCC(=O)O)NC(=O)[C@@H](Cc3c[nH]cn3)NC(=O)[C@H]3CCCN3C(=O)[C@@H](CO)NC(=O)c3ccc4c(c3)C(=O)OC43c4ccc(O)cc4Oc4cc(O)ccc43)cc2)cc1)[C@H](C)O)C(=O)NCc1ccc(CC(=O)N2CCC[C@@H]2C(=O)N[C@H](CCCCN)C(=O)N[C@H](Cc2ccc(O)cc2)C(=O)N[C@H](CCCNC(=N)N)C(=O)N[C@@H](Cc2ccccc2)C(=O)NCc2ccc(CC(=O)N[C@H](CCCNC(=N)N)C(=O)N[C@H](Cc3ccc(O)cc3)C(=O)N[C@@H](C(=O)N[C@H](CCC(=O)O)C(=O)N[C@@H](C)C(=O)NCc3ccc(CC(=O)NCC(=O)N[C@H](Cc4c[nH]c5ccccc45)C(=O)N[C@H](Cc4c[nH]cn4)C(=O)N[C@H](CCCNC(=N)N)C(=O)N[C@@H](C)C(=O)NCc4ccc(CC(N)=O)cc4)cc3)[C@H](C)O)cc2)cc1 [KRAS-1-6] (5FAM-[dS][dP][dH][dE]F[X1][dP][dS]G[dS]A[X1][dT][dS][dR][dE]L[X1][dP][dK][dY][dR]F[X1][dR][dY][dT][dE]A[X1]G[dW][dH][dR]A-{NHCH2C6H4(4-CH2CONH2)}) | 21 | 21 | −0.8822 | 3880 | 9200 | 13441 | 5253 | 11760 | 13672 | % signal compared to DMSO ([3]; assay conc. 0.000508053 μM): 103.1%; % signal compared to DMSO ([3]; assay conc. 0.001524158 μM): 102.7%; % signal compared to DMSO ([3]; assay conc. 0.004572474 μM): 102.4%; % signal compared to DMSO ([3]; assay conc. 0.013717421 μM): 102.5%; % signal compared to DMSO ([3]; assay conc. 0.041152263 μM): 102.9%; % signal compared to DMSO ([3]; assay conc. 0.12345679 μM): 100.3%; % signal compared to DMSO ([3]; assay conc. 0.37037037 μM): 100.7%; % signal compared to DMSO ([3]; assay conc. 1.111111111 μM): 89.85%; % signal compared to DMSO ([3]; assay conc. 3.333333333 μM): 74.45%; % signal compared to DMSO ([3]; assay conc. 19 μM): 62.03* %; blank corrected HTRF ([2]; conc. 1.52E−09): 13652 |
| CC(C)C[C@H](NC(=O)[C@@H](CCCNC(=N)N)NC(=O)[C@@H](CCCCN)NC(=O)[C@@H](CCC(=O)O)NC(=O)[C@@H](Cc1ccccc1)NC(=O)Cc1ccc(CNC(=O)[C@@H](NC(=O)[C@@H](Cc2ccc(O)cc2)NC(=O)[C@@H](Cc2c[nH]cn2)NC(=O)[C@H]2CCCN2C(=O)[C@@H](Cc2c[nH]c3ccccc23)NC(=O)c2ccc3c(c2)C(=O)OC32c3ccc(O)cc3Oc3cc(O)ccc32)C(C)C)cc1)C(=O)NCc1ccc(CC(=O)N2CCC[C@@H]2C(=O)N[C@H](CO)C(=O)N[C@H](CCC(=O)O)C(=O)N[C@H](CCCNC(=N)N)C(=O)NCC(=O)NCc2ccc(CC(=O)N3CCC[C@@H]3C(=O)N[C@H](CCCCN)C(=O)N[C@H](Cc3ccc(O)cc3)C(=O)N[C@H](CCCNC(=N)N)C(=O)N[C@@H](Cc3ccccc3)C(=O)NCc3ccc(CC(=O)N4CCC[C@@H]4C(=O)NCC(=O)N[C@H](CCCNC(=N)N)C(=O)N[C@H](Cc4c[nH]c5ccccc45)C(=O)NCC(=O)NCc4ccc(CC(=O)N[C@H](Cc5c[nH]cn5)C(=O)N[C@H](Cc5ccc(O)cc5)C(=O)N[C@H](CO)C(=O)N[C@H](CCC(=O)O)C(=O)N[C@@H](Cc5ccccc5)C(=O)NCc5ccc(CC(N)=O)cc5)cc4)cc3)cc2)cc1 [KRAS-1-15] (5FAM-[dW][dP][dH][dY]V[X1][dF][dE][dK][dR]L[X1][dP][dS][dE][dR]G[X1][dP][dK][dY][dR]F[X1][dP]G[dR][dW]G[X1][dH][dY][dS][dE]F-{NHCH2C6H4(4-CH2CONH2)}) |  | 180 |  |  |  |  |  |  |  |  |
